Test results published in paper PMC4010452, “Modulation of Mouse Embryonic Stem Cell Proliferation and Neural Differentiation by the P2X7 Receptor” (PLoS ONE, 2014).

Target: T1, P2X7 receptor (Mus musculus, UniProt Q9Z1M0)
T1 construct: gene P2rx7
T1 sequence (Q9Z1M0 1-595): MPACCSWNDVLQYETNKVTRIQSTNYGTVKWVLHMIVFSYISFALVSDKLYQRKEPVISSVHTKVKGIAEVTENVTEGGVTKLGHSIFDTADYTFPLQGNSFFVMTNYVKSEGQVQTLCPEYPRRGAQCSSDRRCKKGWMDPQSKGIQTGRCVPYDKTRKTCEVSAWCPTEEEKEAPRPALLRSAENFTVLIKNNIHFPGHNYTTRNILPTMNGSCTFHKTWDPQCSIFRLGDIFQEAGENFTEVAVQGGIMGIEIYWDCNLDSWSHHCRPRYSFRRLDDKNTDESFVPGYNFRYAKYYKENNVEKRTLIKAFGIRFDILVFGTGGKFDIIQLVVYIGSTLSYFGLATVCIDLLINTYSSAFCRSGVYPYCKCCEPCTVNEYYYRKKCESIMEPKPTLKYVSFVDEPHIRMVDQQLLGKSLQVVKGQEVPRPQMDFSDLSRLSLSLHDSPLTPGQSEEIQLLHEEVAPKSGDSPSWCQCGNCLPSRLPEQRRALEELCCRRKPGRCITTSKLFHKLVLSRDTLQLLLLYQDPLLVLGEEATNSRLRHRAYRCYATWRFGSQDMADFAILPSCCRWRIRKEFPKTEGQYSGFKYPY
Assay: agonist-induced intracellular calcium microfluorimetry and single-cell calcium imaging in mouse E14Tg2A ES cells (native receptor)
Assay type: cell-based

Nc1ncnc2c1ncn2[C@@H]1O[C@H](COP(=O)(O)OP(=O)(O)OP(=O)(O)O)[C@@H](O)[C@H]1O [ATP]
EC50: 4.1 ± 1.8 µM
